Results as given in patent publication US20240041042A1, “1-(PYRIDYL)-5-AZINYLPYRAZOLE DERIVATIVES, AND THEIR USE FOR CONTROL OF UNDESIRED PLANT GROWTH” (Bayer Aktiengesellschaft, priority 2020, published 2024).
Where two headings read alike, the source gives them in different places.

Legend:
Assay type in all cases: in vivo
[1] = test system: Glycine max (GLXMA); details: 20 g/ha; crop plant compatibility, effect vs untreated controls
Outline: (§1)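 Scoring: visual, % of untreated control, about 3 weeks after a pre-emergence application to the soil surface. Application used WP or EC formulations diluted in water with 0.5% additive at 600 l/ha; dosage levels are marked by suffixes a, b and c.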

[2] = test system: Triticum aestivum (TRZAS); details: crop plant compatibility; for Pre-emergence action against TRZAS: 20 g/ha, effect vs untreated controls
Outline: as §1

[3] = test system: Triticum aestivum (TRZAS); details: crop plant compatibility, effect vs untreated controls
Outline: (§2)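 Greenhouse crops in sandy loam sprayed post-emergence at the one-leaf stage, 2–3 weeks after sowing, with WP or EC formulations in water plus 0.5% additive at 600 l/ha. Damage rated visually about 3 weeks later versus untreated controls (0% = like control, 100% = dead); suffixes a–c denote different doses.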

[4] = test system: Zea mays (ZEAMX); details: for Post-emergence action against ZEAMX in % (crop plant compatibility): 20 g/ha, effect in comparison to untreated controls; for Post-emergence action against ZEAMX in %: crop plant compatibility, effect vs untreated controls
Outline: as §2

[5] = test system: Brassica napus (BRSNW); details: 20 g/ha, crop plant compatibility, in comparison to untreated controls
Outline: as §1

Row | Structure (SMILES) | Pre-emergence action against TRZAS [2] [%] | Post-emergence action against TRZAS in % ([3]; 20 g/ha) [%] | Post-emergence action against ZEAMX in % (crop plant compatibility) [4] [%] | Post-emergence action against ZEAMX in % ([4]; 80 g/ha) [%] | also measured
1 | O=C(O)COc1nn(-c2ncccc2F)c(-c2ccc(F)nc2)c1Br [Example I-17] | 10 | 10 | 10 |  | Pre-emergence action against GLXMA [1]: 10%
2 | COC(=O)CNC(=O)[C@@H](C)Oc1nn(-c2ccccn2)c(-c2cncc(F)c2)c1Br [Example I-187] |  |  |  |  | Post-emergence action against TRZAS in % ([3]; 80 g/ha): 20%
3 | COC(=O)[C@@H](C)Oc1nn(-c2ncccc2F)c(-c2ccc(F)nc2)c1I [Example I-341] |  |  |  | 0 | 
4 | COC(=O)COc1nn(-c2ncccc2F)c(-c2ccc(F)nc2)c1Br [Example I-07] |  |  |  | 0 | 
5 | C[C@@H](Oc1nn(-c2ncccc2F)c(-c2ccc(F)nc2)c1Br)C(=O)O [Example I-10] |  |  |  | 0 | Post-emergence action against ZEAMX in % ([4]; 320 g/ha): 20%
6 | COC(=O)COc1nn(-c2ncccc2F)c(-c2cncc(F)c2)c1Br [Example I-16] | 10 | 20 | 10 | 20 | Pre-emergence action against BRSNW in % [5]: 10%; Pre-emergence action against TRZAS in % ([2]; pre-emergence, 80 g/ha, in comparison to untreated controls): 20%
